From ChEMBL document CHEMBL1136959, “Hit-to-lead optimization of pyrrolo[1,2-a]quinoxalines as novel cannabinoid type 1 receptor antagonists” (Bioorg Med Chem Lett, 2009)

Each compound was assayed against Cannabinoid receptor 1 (Rattus norvegicus, UniProt P20272) (assay: Displacement of [3H]SR141716A from CB1 receptor in rat cerebellum membrane).
Assay type: cell membranes

Sequence of Cannabinoid receptor 1 (P20272 whole entry): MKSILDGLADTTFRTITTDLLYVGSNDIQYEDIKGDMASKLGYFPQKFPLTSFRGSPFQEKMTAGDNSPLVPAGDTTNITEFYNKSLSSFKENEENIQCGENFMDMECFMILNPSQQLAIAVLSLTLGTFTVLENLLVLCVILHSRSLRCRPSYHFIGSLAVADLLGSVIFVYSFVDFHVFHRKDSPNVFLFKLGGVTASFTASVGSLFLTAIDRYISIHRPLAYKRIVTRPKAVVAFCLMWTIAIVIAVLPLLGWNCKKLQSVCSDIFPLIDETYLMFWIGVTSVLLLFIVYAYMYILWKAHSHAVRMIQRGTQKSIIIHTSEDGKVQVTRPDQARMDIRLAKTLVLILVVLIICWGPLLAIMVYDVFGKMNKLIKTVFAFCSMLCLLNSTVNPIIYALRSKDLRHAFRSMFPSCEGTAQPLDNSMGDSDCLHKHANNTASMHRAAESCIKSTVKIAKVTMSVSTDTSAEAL

Ki	SMILES
124 nM	CCCCN(CC(=O)N1c2ccccc2-n2cccc2C1c1ccc(OC)cc1)C(=O)C(C)C (centres undefined)
45 nM	CCCCN(CC(=O)N1c2ccccc2-n2cccc2C1c1ccc(Cl)cc1)C(=O)C(C)Cl (centres undefined)
162 nM	CCCCN(CC(=O)N1c2ccccc2-n2cccc2C1c1ccc(F)cc1)C(=O)C(C)Cl (centres undefined)
831 nM	CCCCN(CC(=O)N1c2ccccc2-n2cccc2C1c1ccc(OC)cc1)C(=O)c1cc(Cl)cc(Cl)c1 (centres undefined)
461 nM	CCCCN(CC(=O)N1c2ccccc2-n2cccc2C1c1ccc(OC)cc1)C(=O)COC (centres undefined)
503 nM	CCCCN(CC(=O)N1c2ccccc2-n2cccc2C1c1ccc(OC)cc1)C(=O)c1ccccc1C (centres undefined)
260 nM	CCCCN(CC(=O)N1c2ccccc2-n2cccc2C1c1ccccc1)C(=O)C(C)Cl (centres undefined)
78 nM	CCCCN(CC(=O)N1c2ccccc2-n2cccc2C1c1ccc(OC)cc1)C(=O)C1CC1 (centres undefined)
214 nM	CCCCN(CC(=O)N1c2ccccc2-n2cccc2C1c1ccc(OC)cc1)C(=O)C1CCC1 (centres undefined)
236 nM	CCCCN(CC(=O)N1c2ccccc2-n2cccc2C1c1ccc(OC)cc1)C(=O)CC(C)C (centres undefined)
46 nM	CCCCN(CC(=O)N1c2ccccc2-n2cccc2C1c1ccc(OC)cc1)C(=O)C(C)Cl (centres undefined)
539 nM	CCCCN(CC(=O)N1c2ccccc2-n2cccc2C1c1ccc(OC)cc1)C(=O)CC (centres undefined)
220 nM	COc1ccc(C2c3cccn3-c3ccccc3N2C(=O)CN(C(=O)C(C)Cl)C(C)C)cc1 (centres undefined)
137 nM	CCCCN(CC(=O)N1c2ccccc2-n2cccc2C1c1ccc(OC)cc1)C(=O)c1ccccc1Cl (centres undefined)
602 nM	CCCCN(CC(=O)N1c2ccccc2-n2cccc2C1c1ccc(OC)cc1)C(=O)C1CCCC1 (centres undefined)
349 nM	CCCCN(CC(=O)N1c2ccccc2-n2cccc2C1c1ccc(OC)cc1)C(=O)c1ccccc1F (centres undefined)

What follows are compounds tested against Cannabinoid receptor 1 (Rattus norvegicus) (UniProt P20272) (assay: Displacement of [3H]SR141716A from CB1 receptor in rat cerebellum membrane at 1 uM).
Assay type: cell membranes

Sequence of Cannabinoid receptor 1 (Rattus norvegicus) (P20272 whole entry): as above

inhibition	SMILES
15%	CCCCN(CC(=O)N1c2ccccc2-n2cccc2C1C)C(=O)C(C)Cl (centres undefined)
25%	COc1ccc(C2c3cccn3-c3ccccc3N2C(=O)CNC(=O)C(C)Cl)cc1 (centres undefined)
36%	CCCCN(CC(=O)N1c2ccccc2-n2cccc2C1c1ccccc1OC)C(=O)C(C)Cl (centres undefined)
14%	CCCCN(CC(=O)N1c2ccccc2-n2cccc2C1CC)C(=O)C(C)Cl (centres undefined)
31%	CCCCN(CC(=O)N1c2ccccc2-n2cccc2C1c1ccc(OC)cc1)C(C)=O (centres undefined)
45%	CCCCN(CC(=O)N1c2ccccc2-n2cccc2C1c1cc(OC)ccc1OC)C(=O)C(C)Cl (centres undefined)
46%	COc1ccc(C2c3cccn3-c3ccccc3N2C(=O)CN(C)C(=O)C(C)Cl)cc1 (centres undefined)
40%	COc1ccc(C2c3cccn3-c3ccccc3N2C(=O)CN(C(=O)C(C)Cl)C2CC2)cc1 (centres undefined)
